In patent US20260226057A1, “TRICYCLIC AZEPINONE DERIVATIVES AS SYSTEM XC INHIBITORS” (UCB BIOPHARMA SRL, priority 2023, published 2026):

What was measured:
[1] = target: T1, System Xc^− cystine/glutamate antiporter (Homo sapiens, UniProt Q9UPY5); experiment: [^14C]L-Cystine uptake assay; format: cell-based; conditions: H4 cells, 15 min preincubation, 1 hour at 37° C., sodium-free HEPES buffer; read-out: [^14C] L-Cystine uptake assay (range of pIC50) (converted)
T1 sequence (Q9UPY5 1-501): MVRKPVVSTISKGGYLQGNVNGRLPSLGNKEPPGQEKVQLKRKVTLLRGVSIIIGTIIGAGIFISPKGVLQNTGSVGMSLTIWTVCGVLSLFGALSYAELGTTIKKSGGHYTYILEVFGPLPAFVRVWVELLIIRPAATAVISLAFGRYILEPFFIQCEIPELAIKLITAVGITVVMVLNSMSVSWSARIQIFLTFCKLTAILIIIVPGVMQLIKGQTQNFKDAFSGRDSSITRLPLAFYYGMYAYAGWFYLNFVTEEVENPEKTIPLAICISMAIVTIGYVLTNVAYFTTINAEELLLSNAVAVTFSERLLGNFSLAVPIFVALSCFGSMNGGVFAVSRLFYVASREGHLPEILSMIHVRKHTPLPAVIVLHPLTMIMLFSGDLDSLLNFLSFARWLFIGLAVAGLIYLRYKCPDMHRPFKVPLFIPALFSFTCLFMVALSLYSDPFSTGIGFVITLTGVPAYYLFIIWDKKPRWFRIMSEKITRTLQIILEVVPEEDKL
T1 sequence (P08195 1-529 partner): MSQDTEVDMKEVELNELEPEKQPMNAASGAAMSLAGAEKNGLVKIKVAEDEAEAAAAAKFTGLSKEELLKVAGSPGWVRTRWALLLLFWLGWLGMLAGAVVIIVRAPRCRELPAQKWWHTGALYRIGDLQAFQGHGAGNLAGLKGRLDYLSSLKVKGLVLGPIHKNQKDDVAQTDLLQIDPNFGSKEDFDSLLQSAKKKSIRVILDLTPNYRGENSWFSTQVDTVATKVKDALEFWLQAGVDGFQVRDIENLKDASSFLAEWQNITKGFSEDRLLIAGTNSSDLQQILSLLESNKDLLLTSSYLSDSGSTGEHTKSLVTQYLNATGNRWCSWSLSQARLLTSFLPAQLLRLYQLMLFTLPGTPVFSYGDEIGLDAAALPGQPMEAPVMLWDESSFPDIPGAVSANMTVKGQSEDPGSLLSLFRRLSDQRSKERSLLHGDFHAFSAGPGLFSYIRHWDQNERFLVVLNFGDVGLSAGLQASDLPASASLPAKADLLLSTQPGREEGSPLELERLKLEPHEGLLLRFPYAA
Excerpt: (§1) By measuring respectively, the concentration of glutamate released outside the cell and the L-cystine uptaken in the cell, with increasing concentrations of compounds of formula (I) according to the present invention, the efficacy of said compounds to inhibit the System Xc^− function can be evaluated.
(§2) The efficacy of the compounds to inhibit system Xc^− is represented by measuring the IC50 which corresponds to the concentration of compound necessary to inhibit 50% of the signals from the two control groups; DMSO 1% and Erastin 50 μM in the respective assays. pIC50 values correspond to −log of the IC50 in Molar.
In this assay, the medium is devoid of sodium to prevent the transport of glutamate by sodium-dependent excitatory amino acid transporters (EAATs). H4 cells were plated on a 96-well CytoStar-T scintillating microplate (PerkinElmer) at 5×10^4 cells/well in the medium described above. After 1 day, cells were washed one time with the sodium-free HEPES buffer and preincubated with test compounds of Formula (I) (1% final DMSO) for 15 min. Uptake was initiated by adding 0.5 μM L-[1,2, 1′,2′-^14C] Cystine (0.02 mCi/mL, PerkinElmer, Waltham, US) and 4.5 μM L-Cystine (Sigma-Aldrich). After 1 hour at 37° C., plates were counted in a MicroBeta^2 microplate counter (PerkinElmer).

[2] = target: T1, System Xc^− cystine/glutamate antiporter; experiment: Cystine-induced glutamate release assay; format: cell-based; design: endogenous in cells; host or cells: H4 cells; conditions: H4 cells, 50 μM L-Cystine, 2 hours, sodium-free HEPES buffer; read-out: Cystine-induced glutamate release assay (range of pIC50) (converted)
Excerpt: as §1, §2
Measurement of cystine-induced glutamate release indicates levels of glutamate (outside of the cell) that are dependent on system Xc^− antiporter function. Upon the addition of L-Cystine to H4 cells, intracellular glutamate is counter-transported and exported in the supernatant.
In this assay, the medium is devoid of sodium to prevent the transport of glutamate by sodium-dependent excitatory amino acid transporters (EAATs). H4 cells were plated on 384-well culture plate at 1×10^4 cells/well in Dulbecco's Modified Eagle Medium (DMEM) with L-glutamine, penicillin/streptomycin and 10% fetal bovine serum (all from ThermoFisher Scientific) and incubated in a humidified CO2 incubator at 37° C. After 2 days, cells were washed 4 times with prewarmed sodium-free HEPES buffer (contents in mM: HEPES 10, KCl 5.4, CaCl2 2.5, MgCl2 1, KH2PO4 0.4, D-Glucose 5, Choline chloride 140), pH 7.4. Glutamate release was induced by addition of 50 μM of L-Cystine (Sigma-Aldrich), together with a test compound of Formula (I) at 1% final DMSO concentration. After 2 hours of incubation in the culture incubator, supernatants were transferred to a low-binding polypropylene 384-well plate to determine L-glutamate concentration using Amplex™ Red Glutamic Acid Assay Kit (ThermoFisher Scientific). Briefly, 10 μL of Amplex™ Red working solution was added to 10 μL of the supernatant, then the mixture was incubated for 30 min at 37° C. Fluorescence intensity was measured by EnVision microplate reader (PerkinElmer).

Row | SMILES | IC50 [1] [nM] | IC50 [2] [nM]
1 | CC(=O)c1ccc(NC(=O)CN2C(=O)C(C)c3ncccc3-c3c2cc(C)nc3Cl)cc1 (single isomer, unassigned) [#6] | < 15.8 | < 15.8
2 | COc1cc2c(c(F)n1)-c1cccnc1C(C)C(=O)N2CC(=O)Nc1ccc(C(C)=O)cc1 (single isomer, unassigned) [#11] | 15.8 to 39.8 | 15.8 to 39.8
3 | COc1cnc2c(c1)-c1cnc(C)cc1N(CC(=O)Nc1ccc(C(C)=O)cc1)C(=O)C2C (single isomer, unassigned) [#12] | 39.8 to 100 | 39.8 to 100
4 | COc1nc(C)cc2c1-c1cccnc1C(C)C(=O)N2CC(=O)Nc1ccc(C(C)=O)cc1 (single isomer, unassigned) [#13] | < 15.8 | 15.8 to 39.8
5 | COc1nccc2c1-c1cccnc1C(C)C(=O)N2CC(=O)Nc1ccc(C(C)=O)cc1 (single isomer, unassigned) [#14] | 15.8 to 39.8 | 39.8 to 100
6 | CC(=O)c1ccc(NC(=O)CN2C(=O)C(C)c3ncccc3-c3c2cc(C)nc3F)cc1O (single isomer, unassigned) [#16] | < 15.8 | 15.8 to 39.8
7 | COc1cc2c(c(F)n1)-c1cc(F)cnc1C(C)C(=O)N2CC(=O)Nc1ccc(C(C)=O)cc1 (single isomer, unassigned) [#17] | < 15.8 | 39.8 to 100
8 | Cc1cc2c(c(F)n1)-c1cc(F)cnc1C(C)C(=O)N2CC(=O)Nc1ccc2c(c1)OCC2=O (single isomer, unassigned) [#18] | 39.8 to 100 | 39.8 to 100
9 | CC(=O)c1ccc(NC(=O)CN2C(=O)C(C)c3ncc(F)cc3-c3cc(C#N)c(C)cc32)cc1 (single isomer, unassigned) [#19] | < 15.8 | 15.8 to 39.8
10 | COc1cnc2c(c1)-c1c(cc(C)nc1F)N(CC(=O)Nc1ccc(C(C)=O)cc1)C(=O)C2C (single isomer, unassigned) [#20] | 15.8 to 39.8 | 39.8 to 100
11 | CC(=O)c1ccc(NC(=O)CN2C(=O)C(C)c3ncccc3-c3c2cc(F)nc3F)cc1 (single isomer, unassigned) [#23] | 39.8 to 100 | 39.8 to 100
12 | COc1cc2c(cn1)-c1cc(F)cnc1C(C)C(=O)N2CC(=O)Nc1ccc(C(C)=O)cc1 (single isomer, unassigned) [#32] | 15.8 to 39.8 | 100 to 501
13 | CC(=O)c1ccc(NC(=O)CN2C(=O)C(C)c3ncc(F)cc3-c3c2cc(C)nc3F)cc1O (single isomer, unassigned) [#33] | < 15.8 | < 15.8
14 | CC(=O)c1ccc(NC(=O)CN2C(=O)[C@H](C)c3ncccc3-c3c2cc(C)nc3F)cc1 [#1] | 15.8 to 39.8 | 15.8 to 39.8
15 | Cc1cc2c(c(F)n1)-c1cccnc1[C@@H](C)C(=O)N2CC(=O)Nc1ccc(C(=O)C2CC2)cc1 [#2] | 100 to 501 | 100 to 501
16 | CC(=O)c1ccc(NC(=O)CN2C(=O)[C@H](C)c3ncc(F)cc3-c3c2cc(C)nc3F)cc1 [#3] | 15.8 to 39.8 | 15.8 to 39.8
17 | CC(=O)c1ccc(NC(=O)CN2C(=O)C(C)c3ncc(F)cc3-c3cnc(C)cc32)cc1 (stereo not shown) [#4] | 39.8 to 100 | 39.8 to 100
18 | CC(=O)c1ccc(NC(=O)CN2C(=O)[C@H](C)c3ncc(F)cc3-c3c2cc(C)nc3Cl)cc1 [#5] | < 15.8 | < 15.8

Row | SMILES | IC50 [1] [nM] | IC50 [2] [nM]
19 | CC(=O)c1ccc(NC(=O)CN2C(=O)C(C)c3ncccc3-c3c2cc(N2CC(F)(F)C2)nc3F)cc1 (stereo not shown) [#7] | < 15.8 | 39.8 to 100
20 | CC(=O)c1ccc(NC(=O)CN2C(=O)C(C)c3ncccc3-c3c2cc(N2CC(F)C2)nc3F)cc1 (stereo not shown) [#8] | < 15.8 | < 15.8
21 | CC(=O)c1ccc(NC(=O)CN2C(=O)Cc3ncccc3-c3c2cc(N2CC4(C2)CC4(F)F)nc3Cl)cc1 [#9] | 39.8 to 100 | 100 to 501
22 | CC(=O)c1ccc(NC(=O)CN2C(=O)Cc3ccccc3-c3c2cc(C)nc3F)cc1 [#10] | 39.8 to 100 | 100 to 501
23 | CCC(=O)c1ccc(NC(=O)CN2C(=O)[C@H](C)c3ncccc3-c3c2cc(C)nc3F)cc1 [#15] | 39.8 to 100 | 39.8 to 100
24 | CC(=O)c1ccc(NC(=O)CN2C(=O)Cc3ncccc3-c3c2cc(N2CC(F)C2)nc3F)cc1 [#21] | < 15.8 | 15.8 to 39.8
25 | CC(=O)c1ccc(NC(=O)CN2C(=O)Cc3ncccc3-c3c2cc(N2CC(F)(F)C2)nc3F)cc1 [#22] | 15.8 to 39.8 | 39.8 to 100
26 | CC(=O)c1ccc(NC(=O)CN2C(=O)C(C)c3ncccc3-c3c2cc(C)nc3F)cc1F (stereo not shown) [#24] | 15.8 to 39.8 | 39.8 to 100
27 | CC(=O)c1ccc(NC(=O)CN2C(=O)C(C)c3ncccc3-c3c2cc(N2CC(C)(O)C2)nc3F)cc1 (stereo not shown) [#25] | 15.8 to 39.8 | 39.8 to 100
28 | CC(=O)c1ccc(NC(=O)CN2C(=O)C(C)c3ncccc3-c3c2cc(N2CC(C)(F)C2)nc3F)cc1 (stereo not shown) [#26] | 15.8 to 39.8 | 100 to 501
29 | CC(=O)c1ccc(NC(=O)CN2C(=O)Cc3ncccc3-c3c2cc(N2CC(C)(O)C2)nc3F)cc1 [#27] | 15.8 to 39.8 | 39.8 to 100
30 | CC(=O)c1ccc(NC(=O)CN2C(=O)C(C)c3nscc3-c3c2cc(C)nc3F)cc1 (stereo not shown) [#28] | 100 to 501 | 39.8 to 100
31 | CC(=O)c1ccc(NC(=O)CN2C(=O)C(C)c3ncccc3-c3c2cc(C2(O)CCC2)nc3F)cc1 (stereo not shown) [#29] | 39.8 to 100 | 39.8 to 100
32 | CC(=O)c1ccc(NC(=O)CN2C(=O)C(C)c3ncc(F)cc3-c3c2cc(CO)nc3F)cc1 (stereo not shown) [#30] | 100 to 501 | 100 to 501
33 | CC(=O)c1ccc(NC(=O)CN2C(=O)C(C)c3ncccc3-c3c2cc(C2CCC2)nc3F)cc1 (stereo not shown) [#31] | 15.8 to 39.8 | 15.8 to 39.8
34 | CC(=O)c1ccc(NC(=O)CN2C(=O)C(C)c3cnc(F)cc3-c3c2cc(C)nc3F)cc1 (stereo not shown) [#34] | 39.8 to 100 | 39.8 to 100
35 | CC(=O)c1ccc(NC(=O)CN2C(=O)C(C)c3ncccc3-c3c(F)cc(N4CC(F)C4)cc32)cc1 (stereo not shown) [#35] | < 15.8 | 15.8 to 39.8
